The results in this text go back to PubChem BioAssay AID1963959 (Molecular Pharmacology Branch, DTP, NCI, 2024).

The test system of this test is T-47D spheroids with HUVEC/MSC, viability. Briefly: Anticancer human tumor T-47D cell line growth inhibition [PI3K].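 On all read-outs here: spheroids exposed to agents for seven days before reading.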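 On viability, T/C: percent of DMSO vehicle control luminescence so 100% = untreated growth.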 Conditions: for viability, T/C: stronger effect = lower value. Summed up: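 Multi-cell spheroids combine tumor cells with HUVEC and human MSCs, treated with targeted agents alone or with inavolisib, alpelisib, duvelisib or copanlisib. Concentrations fall in half-log steps from at or near clinical Cmax, or from 10 microM where Cmax is unknown; viability read-out.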

[1] abbreviates: curve of first compound, second compound 0.0316 µM.
The mark [2] stands for this setting: curve of first compound, second compound 0.1 µM.
[3] abbreviates: curve of first compound, second compound 0.316 µM.
Where [4] appears, read: curve of first compound, second compound 1 µM.
[5] abbreviates: second compound 0.0316 µM, first compound 0.0316 µM.
Setting [6] is: second compound 0.0316 µM, first compound 0.1 µM.
The mark [7] stands for this setting: second compound 0.1 µM, first compound 0.0316 µM.
Setting [8] is: second compound 0.1 µM, first compound 0.1 µM.
Where [9] appears, read: second compound 0.316 µM, first compound 0.0316 µM.
[10] abbreviates: second compound 0.316 µM, first compound 0.1 µM.
Setting [11] is: second compound 1 µM, first compound 0.0316 µM.
Setting [12] is: second compound 1 µM, first compound 0.1 µM.

A value given as a limit tells only on which side of the number the result lay.

Turning to `CC1(C)CCC(CN2CCN(c3ccc(C(=O)NS(=O)(=O)c4ccc(NCC5CCOCC5)c([N+](=O)[O-])c4)c(Oc4cnc5[nH]ccc5c4)c3)CC2)=C(c2ccc(Cl)cc2)C1` + CC(Nc1ncnc2nc[nH]c12)c1cc2cccc(Cl)c2c(=O)n1-c1ccccc1, the half-inhibitory concentration (IC50) (as a rule, the concentration that inhibits the measured activity by half) by setting is: under setting [1], > 10 µM; under setting [2], > 10 µM; under setting [3], > 10 µM; under setting [4], > 10 µM; (curve of first compound, second compound 3.16 µM) > 10 µM; (curve of first compound, second compound 10 µM) > 10 µM. In addition, the viability, T/C (in general, the result in the treated group divided by that in the control group, in per cent) is 120% under setting [5]; 75.2% under setting [6]; 85.7% (second compound 0.0316 µM, first compound 0.316 µM); 80.9% (second compound 0.0316 µM, first compound 1 µM); 81% (second compound 0.0316 µM, first compound 3.16 µM); 79.5% (second compound 0.0316 µM, first compound 10 µM). Further, the viability, T/C is 110% under setting [7]; 96% under setting [8]; 99.5% (second compound 0.1 µM, first compound 0.316 µM); 83.7% (second compound 0.1 µM, first compound 1 µM); 89.6% (second compound 0.1 µM, first compound 3.16 µM); 83.6% (second compound 0.1 µM, first compound 10 µM). Besides, the viability, T/C runs as follows: under setting [9], 88.5%; under setting [10], 101%; (second compound 0.316 µM, first compound 0.316 µM) 86%; (second compound 0.316 µM, first compound 1 µM) 89.7%; (second compound 0.316 µM, first compound 3.16 µM) 85.3%; (second compound 0.316 µM, first compound 10 µM) 81%. The viability, T/C by setting is: under setting [11], 96.9%; under setting [12], 93.4%; (second compound 1 µM, first compound 0.316 µM) 91%; (second compound 1 µM, first compound 1 µM) 80.3%; (second compound 1 µM, first compound 3.16 µM) 77.1%; (second compound 1 µM, first compound 10 µM) 79.2%. In addition, the viability, T/C by setting is: (second compound 3.16 µM, first compound 0.0316 µM) 91.6%; (second compound 3.16 µM, first compound 0.1 µM) 88.9%; (second compound 3.16 µM, first compound 0.316 µM) 97.3%; (second compound 3.16 µM, first compound 1 µM) 95.5%; (second compound 3.16 µM, first compound 3.16 µM) 87.3%; (second compound 3.16 µM, first compound 10 µM) 66.8%. Besides, the viability, T/C is 96.5% (second compound 10 µM, first compound 0.0316 µM); 94.4% (second compound 10 µM, first compound 0.1 µM); 88.8% (second compound 10 µM, first compound 0.316 µM); 89% (second compound 10 µM, first compound 1 µM); 86.1% (second compound 10 µM, first compound 3.16 µM); 79.8% (second compound 10 µM, first compound 10 µM).
Regarding `Cn1ncnc1[C@H]1c2n[nH]c(=O)c3cc(F)cc(c23)N[C@@H]1c1ccc(F)cc1` + COc1c(OCCCN2CCOCC2)ccc2c3n(c(=NC(=O)c4cnc(N)nc4)nc12)CCN3, the concentration for half-maximal inhibition (IC50) runs as follows: (curve of first compound, second compound 0.00316 µM) > 0.1 µM; (curve of first compound, second compound 0.01 µM) > 0.1 µM; under setting [1], > 0.1 µM; under setting [2], < 0.000316 µM; under setting [3], < 0.000316 µM; under setting [4], < 0.000316 µM. Also, the viability, T/C by setting is: (second compound 0.00316 µM, first compound 0.000316 µM) 102%; (second compound 0.00316 µM, first compound 0.001 µM) 87.4%; (second compound 0.00316 µM, first compound 0.00316 µM) 112%; (second compound 0.00316 µM, first compound 0.01 µM) 104%; (second compound 0.00316 µM, first compound 0.0316 µM) 109%; (second compound 0.00316 µM, first compound 0.1 µM) 101%. The viability, T/C was 114% (second compound 0.01 µM, first compound 0.000316 µM); 83.9% (second compound 0.01 µM, first compound 0.001 µM); 93.7% (second compound 0.01 µM, first compound 0.00316 µM); 79.3% (second compound 0.01 µM, first compound 0.01 µM); 99.5% (second compound 0.01 µM, first compound 0.0316 µM); 94.1% (second compound 0.01 µM, first compound 0.1 µM). Also, the viability, T/C by setting is: (second compound 0.0316 µM, first compound 0.000316 µM) 72.9%; (second compound 0.0316 µM, first compound 0.001 µM) 72.8%; (second compound 0.0316 µM, first compound 0.00316 µM) 85%; (second compound 0.0316 µM, first compound 0.01 µM) 71.4%; under setting [5], 75.1%; under setting [6], 64.8%. The viability, T/C reads like this: (second compound 0.1 µM, first compound 0.000316 µM) 40.9%; (second compound 0.1 µM, first compound 0.001 µM) 47.6%; (second compound 0.1 µM, first compound 0.00316 µM) 41.2%; (second compound 0.1 µM, first compound 0.01 µM) 34.1%; under setting [7], 40.7%; under setting [8], 39%. The viability, T/C is 18.9% (second compound 0.316 µM, first compound 0.000316 µM); 20.8% (second compound 0.316 µM, first compound 0.001 µM); 15.2% (second compound 0.316 µM, first compound 0.00316 µM); 17.1% (second compound 0.316 µM, first compound 0.01 µM); 14.8% under setting [9]; 15.1% under setting [10]. Moreover, the viability, T/C runs as follows: (second compound 1 µM, first compound 0.000316 µM) 5.24%; (second compound 1 µM, first compound 0.001 µM) 6.61%; (second compound 1 µM, first compound 0.00316 µM) 7.38%; (second compound 1 µM, first compound 0.01 µM) 7.19%; under setting [11], 5.03%; under setting [12], 6.71%.
For the compound `COc1c(OCCCN2CCOCC2)ccc2c3n(c(=NC(=O)c4cnc(N)nc4)nc12)CCN3`, the viability, T/C runs as follows: (compound 0.01 µM) 99.1% [middle of 8 runs]; (compound 0.0316 µM) 70.4% [middle of 8 runs]; (compound 0.1 µM) 45.4% [middle of 8 runs]; (compound 0.316 µM) 20.5% [middle of 8 runs]; (compound 1 µM) 7.09% [middle of 8 runs]. Moreover, under “compound alone, run of 04/25/2023”, the IC50 was 86.9 nM [middle of 8 runs].
Take `CC(C)n1nc(-c2ccc3oc(N)nc3c2)c2c(N)ncnc21`: the viability, T/C by setting is: (compound 0.000316 µM) 104% [middle of 4 runs]; (compound 0.001 µM) 96.4% [middle of 4 runs]; (compound 0.00316 µM) 97.8% [middle of 4 runs]; (compound 0.0316 µM) 87.3% [middle of 4 runs]; (compound 0.1 µM) 35.7% [middle of 4 runs]. Under “curve of compound”, the IC50 was 70.6 nM [middle of 4 runs].
